Patent publication US6127136A, “Detection of dioxin-like compounds by detection of transformed Ah receptor/ARNT complex” (Paracelsian, Inc., priority 1996, dated 2000)
Values joined by “and” are separate entries in the source; they are usually repeats but may differ in a detail not shown here. Equal values may be shown once.

Target: transformed Ah receptor/ARNT complex (Cavia porcellus, UniProt Q6J287)
Experiment: mini-Ah immunoassay with anti-ARNT detection of transformed Ah receptor/ARNT complex
Type: biochemical, guinea pig (male Hartley, hepatic cytosol)
Design: AHR/ARNT heterodimer on DRE gel, anti-ARNT detection; in some samples recombinant baculovirus ARNT (Bradfield) added
Settings: for density, average / density: TCDD (+); for density: single replicate
Method: Male Hartley guinea pigs weighing 300-350 g were obtained from Cornell Research Animal Resources, Cornell University, Ithaca, N.Y. Guinea pigs were anaesthetized and killed with carbon dioxide. Livers were perfused in situ with 100 mL ice-cold perfusion buffer, excised, trimmed of connective tissue, poorly perfused liver and gall bladder and weighed. The liver was minced and five mL of ice-cold HEDG per gram liver were added and the whole homogenized in a 50 mL homogenizer with teflon pestle using at 200 rpm for a total of seven strokes. Crude homogenate was centrifuged at 12,500 RPM in 50 mL tubes in a JA17 rotor in a Beckman J2-MI preparative centifuge at 4 degrees C for 20 minutes.
For a typical mini-Ah immunoassay utilizing 12 samples, 5 mL of Transformed Ah Receptor Affinity Gel slurry described above was pipeted into a 50 mL conical tube. The slurry was washed with 40 mL HEDG and centifuged at 1000 g for 5 min, the supernatant withdrawn and discarded, the pellet washed with 40 mL HEDG, and centrifuged again. After the second centrifugation all but 5 mL of supernatant was withdrawn and the gel thus resuspended in the original volume. 10 mL guinea pig hepatic cytosol was thawed. The thawed cytosol was pooled and then divided into two 5 mL groups and treated with either 5 uL DMSO or 5 uL 10 uM TCDD in DMSO.
Assembly of transformation mixture:In the preferred embodiment of the mini-Ah immunoassay, each sample was composed of one 1.5 mL microfuge tube with the following sequential additions: 90 uL 4 M NaCl/HEDG, 400 uL Transformed Ah Receptor Affinity Gel slurry and 800 uL cytosol (treated with DMSO or TCDD as described above). The three components described above are the minimum components added at that step of the mini-Ah immunoassay. Any additional materials, such as ARNT, anti-ARNT and anti-Rabbit/alkaline phosphatase conjugate, were sometimes also added at this time as described in the specific examples. After assembly of the samples, the tubes were capped and the samples incubated at room temperature for 2 hours with gentle rocking to allow transformation of the Ah receptor to take place, interaction of transformed Ah receptor and ARNT, and binding of the transformed Ah receptor as a heteromer to the DRE oligonucleotide contained on the Transformed Ah Receptor Affinity Gel.
Immunoprobing of transformed Ah receptor: The nitrocellulose membrane was then removed from the ELIFA apparatus, rinsed briefly with water, and placed in 20 mL blocker containing test antibody. All antibodies were incubated with the nitrocellulose membrane for one hour at room temperature. When the test antibody was anti-Ah receptor/alkaine phosphatase conjugate, 100 uL anti-Ah receptor/alkaline phosphatase conjugate (1:200), per 20 mL blocker was used. When anti-ARNT was added to the transformation mixture, anti-Rabbit/alkaline phosphatase conjugate (Sigma, St. Louis, Mo.) diluted 1:1000 (20 uL to 20 mL blocker) was used to probe the membrane. When ARNT, anti-ARNT and anti-Rabbit or anti-ARNT and anti-Rabbit was added to the transformation mixture, the Immunoprobing step was eliminated.
Immunodetection and densitometry: In all cases the nitrocellulose membrane was rinsed prior to immunodetection 3 times for 5 min each with 100 mL TBST, briefly washed in AP development buffer and developed in freshly made BCIP/NBT developer for 5 min, whereupon the color reaction was stopped by washing the membrane in water.
Quantitative data were obtained by scanning the dried membrane in a Microtek 600ZS scanner in gray scale, 300 dpi, 0% brightness, 0% contrast. Densitometric measurements of the dot-blots were made using ScanAnalysis software (Biosoft, Cambridge U.K.).
Cytosol and DRE affinity gel are prepared as described above. Cytosol is dosed with 1:1000 v/v DMSO (-) or 1:1000 v/v 10 uM 2,3,7,8-tetrachlorodibenzo-p-dioxin in DMSO (+).
Immunoprobing of transformed Ah receptor is as described above with the following probes. […]

[1] = Example 3, 220 ng anti-ARNT spike
[2] = Example 3, 660 ng anti-ARNT spike
[3] = Example 4, ARNT/anti-ARNT/anti-rabbit
[4] = Example 4, anti-ARNT/anti-rabbit, no ARNT added
[5] = Example 4, codes 1-4 (ARNT 2 ug, anti-ARNT 2 uL)

Sequence of transformed Ah receptor/ARNT complex (Q6J287 10-846): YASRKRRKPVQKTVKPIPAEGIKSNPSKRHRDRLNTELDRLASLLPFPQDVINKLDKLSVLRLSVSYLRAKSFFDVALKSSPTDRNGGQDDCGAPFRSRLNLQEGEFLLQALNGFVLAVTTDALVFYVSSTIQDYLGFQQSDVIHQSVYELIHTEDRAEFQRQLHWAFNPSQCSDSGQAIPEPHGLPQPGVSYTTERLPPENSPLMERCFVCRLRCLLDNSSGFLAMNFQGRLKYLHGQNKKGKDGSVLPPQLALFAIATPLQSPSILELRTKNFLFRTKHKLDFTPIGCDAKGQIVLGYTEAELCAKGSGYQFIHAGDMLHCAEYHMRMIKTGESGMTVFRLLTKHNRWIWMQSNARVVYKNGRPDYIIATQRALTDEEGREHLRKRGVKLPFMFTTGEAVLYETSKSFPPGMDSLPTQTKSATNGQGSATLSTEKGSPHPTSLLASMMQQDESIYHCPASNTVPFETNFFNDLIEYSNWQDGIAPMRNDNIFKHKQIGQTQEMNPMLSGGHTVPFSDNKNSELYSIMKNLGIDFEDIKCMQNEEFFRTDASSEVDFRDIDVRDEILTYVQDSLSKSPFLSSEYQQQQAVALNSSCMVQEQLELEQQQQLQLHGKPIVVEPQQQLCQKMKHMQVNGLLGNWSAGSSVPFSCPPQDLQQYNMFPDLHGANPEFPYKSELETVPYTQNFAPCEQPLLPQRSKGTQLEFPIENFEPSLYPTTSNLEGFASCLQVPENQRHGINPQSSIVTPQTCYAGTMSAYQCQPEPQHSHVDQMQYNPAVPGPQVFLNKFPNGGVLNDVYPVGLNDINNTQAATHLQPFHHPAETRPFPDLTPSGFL
Sequence of transformed Ah receptor/ARNT complex (Q0WXX3 1-790 partner): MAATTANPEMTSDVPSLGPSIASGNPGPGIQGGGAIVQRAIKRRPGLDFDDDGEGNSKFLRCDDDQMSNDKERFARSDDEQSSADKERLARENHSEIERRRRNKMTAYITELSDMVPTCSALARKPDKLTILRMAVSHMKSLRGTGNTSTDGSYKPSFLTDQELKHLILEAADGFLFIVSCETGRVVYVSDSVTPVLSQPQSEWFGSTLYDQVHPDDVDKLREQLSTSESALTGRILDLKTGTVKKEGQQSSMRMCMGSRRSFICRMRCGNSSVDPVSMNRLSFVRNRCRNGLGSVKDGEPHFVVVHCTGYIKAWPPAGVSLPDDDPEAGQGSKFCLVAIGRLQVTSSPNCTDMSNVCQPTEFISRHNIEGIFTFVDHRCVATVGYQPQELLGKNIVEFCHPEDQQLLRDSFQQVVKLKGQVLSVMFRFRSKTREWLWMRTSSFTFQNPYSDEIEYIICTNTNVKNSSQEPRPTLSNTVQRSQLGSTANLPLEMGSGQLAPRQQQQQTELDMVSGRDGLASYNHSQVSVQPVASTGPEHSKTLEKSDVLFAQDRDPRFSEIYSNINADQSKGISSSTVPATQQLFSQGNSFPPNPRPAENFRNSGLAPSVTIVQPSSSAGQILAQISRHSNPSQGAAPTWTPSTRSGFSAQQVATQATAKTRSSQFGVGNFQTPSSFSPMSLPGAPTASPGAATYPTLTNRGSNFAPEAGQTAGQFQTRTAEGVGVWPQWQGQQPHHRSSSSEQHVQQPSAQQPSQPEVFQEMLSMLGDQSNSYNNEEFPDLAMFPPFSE
Sequence of transformed Ah receptor/ARNT complex (P27540 whole entry partner): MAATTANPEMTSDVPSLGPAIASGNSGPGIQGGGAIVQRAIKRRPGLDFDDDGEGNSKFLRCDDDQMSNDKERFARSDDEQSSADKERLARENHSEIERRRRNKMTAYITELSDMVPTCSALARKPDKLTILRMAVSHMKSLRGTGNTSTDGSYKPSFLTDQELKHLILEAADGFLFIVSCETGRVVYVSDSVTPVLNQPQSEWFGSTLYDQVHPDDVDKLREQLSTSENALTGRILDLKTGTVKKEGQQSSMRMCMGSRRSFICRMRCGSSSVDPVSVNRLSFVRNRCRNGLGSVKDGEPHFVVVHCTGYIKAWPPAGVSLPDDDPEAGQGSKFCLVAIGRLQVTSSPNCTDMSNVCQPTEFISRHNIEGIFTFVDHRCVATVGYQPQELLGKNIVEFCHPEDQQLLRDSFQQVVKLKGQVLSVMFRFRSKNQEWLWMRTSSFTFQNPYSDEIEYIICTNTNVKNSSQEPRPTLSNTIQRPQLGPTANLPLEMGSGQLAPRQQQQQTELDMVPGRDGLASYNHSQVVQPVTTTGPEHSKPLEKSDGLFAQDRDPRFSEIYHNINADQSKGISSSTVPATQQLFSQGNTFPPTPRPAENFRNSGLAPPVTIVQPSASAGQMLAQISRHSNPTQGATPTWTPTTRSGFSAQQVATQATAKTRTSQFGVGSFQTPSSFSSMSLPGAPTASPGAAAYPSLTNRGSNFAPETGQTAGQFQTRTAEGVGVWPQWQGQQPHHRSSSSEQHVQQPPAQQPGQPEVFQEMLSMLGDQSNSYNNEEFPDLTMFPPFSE

Clc1cc2c(cc1Cl)Oc1cc(Cl)c(Cl)cc1O2 [TCDD, 2,3,7,8-tetrachlorodibenzo-p-dioxin]
density, difference TCDD treated (+) minus DMSO treated (-) [1]: 185901 | density, average (Example 3, 220 ng anti-ARNT spike, average of two replicates): 205498 | density [1]: 191233 and 219762 | density, difference TCDD treated (+) minus DMSO treated (-) [2]: 189840 | density, average (Example 3, 660 ng anti-ARNT spike, average of two replicates): 261285 | density [2]: 231412 and 291157 | density, difference [3]: 76074 | density (Example 4, ARNT/anti-ARNT/anti-rabbit in mixture): 85215 and 80175 | density, average [3]: 82695 | density, difference [4]: 33501 | density [4]: 36309 | density, average (Example 4, anti-ARNT/anti-rabbit, no ARNT added, second replicate lost): 36309 | density, difference [5]: 235535 | density, average [5]: 244132 | density (Example 4, codes 1-4 (ARNT 2 ug, anti-ARNT 2 uL; printed Normal)): 233321 and 254942
